Legend:
[1] = test system: ConA hepatitis mouse model; experiment: Survival rate of ConA hepatitis mouse model; type: in vivo, C57BL/6 mice; details: ConA 25 mg/kg i.v.; 96-hour observation; gavage, extract 15 mg/kg, actein and deoxyactein 5 mg/kg; model group 10%
Experimental: Test materials: ConA was purchased from Sigma; actein and deoxyactein were purchased from ChromaDex, USA.
(§1) Animal: C57BL/6 mice, purchased from Beijing Huafukang Biotechnology Co., Ltd.
Grouping: 40 C57BL/6 mice, male, 18-20 g, after 1 day of adaptive breeding, mice were randomly divided into 4 groups of 10 animals in each group: ConA model group, triterpenoid saponin group, actein group, and deoxyactein group.
Model preparation and drug administration: weighed 150 mg of ConA powder, dissolved it in 40 mL of sterile PBS, left it at room temperature for 1 to 2 hours, and continued to gently shake intermittently to mix well. Low temperature ultrasound was used to improve dissolution (no more than 5 min each time) and avoided excessive foaming. After it was fully dissolved, the volume was adjusted to 50 mL to a concentration of 3 mg/mL and filtered the solution under pressure with a 0.45 μm filter. Mice were given a single intravenous injection at 25 mg/kg, with 100 μL per mouse. Took 4 mg of actein and deoxyactein, added 10 ml of sterile double-distilled water to dissolve to a concentration of 0.4 mg/mL. […]

[2] = test system: ConA hepatitis mouse model; experiment: Serum ALT and AST in ConA hepatitis mouse model; type: in vivo, C57BL/6 mice; details: serum 10 hours after ConA 15 mg/kg i.v.; gavage, extract 15 mg/kg, actein/deoxyactein 5 mg/kg; MEAN ± SEM
Experimental: The test materials and animals were the same as those in Experimental Example 1.
(§2) Grouping: C57BL/6 mice, male, 18-20 g, after 1 day of adaptive breeding, randomly divided into 5 groups: normal control group, ConA model group, triterpenoid saponin group, actein group and deoxyactein group.
(§3) Model preparation and drug administration: except the normal control group, mice were injected intravenously at a dose of ConA 15 mg/kg. The dosage of each group was the same as that of Experimental Example 1.
(1) The effects of drug administration in each group on serum ALT and AST of ConA mice were measured. Eight mice in each group were sacrificed under anesthesia 10 hours after ConA injection. Peripheral blood was taken, and serum was separated to detect ALT and AST.

[3] = test system: ConA hepatitis mouse model; experiment: Liver pathological damage in ConA hepatitis mouse model (HE staining); type: in vivo, C57BL/6 mice; details: liver 10 hours after ConA 15 mg/kg; compared with the ConA group
Experimental: as §2, §3
(2) The effects of drug administration in each group on liver pathological damage in ConA mice were examined. Three mice in each group were sacrificed under anesthesia 10 hours after ConA injection. The left lobe of the liver was taken, cut into a size of about 5 mm3, and placed in 10% formalin solution, and dehydrated, transparently impregnated with wax, embedded, sliced, and spread, observed after staining;

[4] = test system: serum cytokines TNF-α, IL-12, IL-6, MCP-1, IFN-γ; experiment: Serum inflammatory cytokine secretion in ConA mouse model; type: in vivo, C57BL/6 mice; details: MEAN ± SEM; for IL-6 / IL-12 / MCP-1 / TNF-α: serum 3 hours after ConA injection; for IFN-γ: serum 10 hours after ConA injection
Experimental: as §2, §3
(3) The effect of each group of drugs on serum cytokine secretion of ConA mice was examined. Six mice in each group. Peripheral blood was collected 3 hours after ConA injection and serum was separated to detect the secretion of cytokines TNF-α, IL-12, IL-6 and MCP-1. Serum was separated 10 hours after ConA injection to detect cell factor IFN-γ secretion.

[5] = test system: mouse bone marrow-derived macrophages (BMDM); experiment: IL-12 and TNF-α secretion by LPS-stimulated macrophages (BMDM); type: cell-based, C57BL/6 mice; details: ELISA
Text: Test materials: LPS was purchased from Sigma; actein and deoxyactein were purchased from American ChromaDex; FBS was purchased from American PAA; DMEM high glucose medium; macrophage colony-stimulating factor (M-CSF) was purchased from PeproTech company; ELISA kit was purchased from BD company of the United States.
as §1
Isolation and culture of mouse bone marrow-derived macrophages (BMDM): after anesthesia of C57BL/6 mice, the mouses 2 pairs of femur and tibia were aseptically separated, and the bone marrow cells were flushed into a sterile flow tube using a 2 mL syringe with sterile PBS. Repeatedly pipetted into a bone marrow single cell suspension. After centrifugation, bone marrow cells were harvested, and 10 mL of complete medium containing 10% FBS, 1% glutamine, 1% double antibiotics (anti-penicillin, anti-streptomycin), and 10 ng/mL M-CSF were added to […] cell culture dish to culture at 37° C. After 4 days, the above fresh medium was changed, and macrophages with large volume, adherent growth, and mature differentiation were observed under the microscope on the 7th day. The cells were scraped off with a cell scraper, and repeatedly blown and mixed to form a single cell suspension, and then seeded in a 96-well plate at 1×10^5 cells/well.
BMDM cells induced activation and drug treatment: BMDM cells were treated with different doses of actein and deoxyactein, and 100 ng/mL LPS was given to stimulate cells 1 h later to simulate the activation of macrophages by bacterial infection. The cell supernatant was collected 4 hours later, and cytokine secretion was detected by ELISA.

CD45+CD3-NK1.1+ NK cells = experiment: IFN-γ expression in NK cells; type: cell-based, C57BL/6 mice; details: bone marrow cells; actein 62.5 ng/mL, deoxyactein 250 ng/mL; PMA + ionomycin 5 h; flow cytometry; PMA + ionomycin group 42.1 ± 2.7
Experimental: Test materials: CD45-PE, CD3-FITC, NK1.1-APC antibody, Intracellular Fixation & Permeabilization Buffer Set, and Cell Stimulation Cocktail were purchased from eBioscience.
as §1
Bone marrow single cell suspension preparation: after anesthesia of C57BL/6 mice, the 2 pairs of femur and tibia of the mouse were separated aseptically, the sterile bone marrow cells were pipetted into a sterile flow tube with a 2 mL syringe and sterile PBS to obtain bone marrow single cell suspension. After centrifugation, bone marrow cells were harvested, and 1.5 mL of complete medium containing 10% FBS, 1% glutamine, and 1% double antibiotics (anti-penicillin, anti-streptomycin) were added.
Intracellular staining after drug administration and NK cell induction activation: cells were treated with actein of intermediate concentration of 62.5 ng/mL and deoxyactein at a concentration of 250 ng/mL, and the cells were stimulated with Cell Stimulation Cocktail (containing PMA, ionomycin and protein transport inhibitors) for 5 h. Surface staining was performed with CD45-PE, CD3-FITC, NK1.1-APC antibodies, intracellular staining was performed with […] antibodies, and the percentage of positive cells expressing IFN-γ in CD45^+CD3^−NK1.1^+ NK cells was detected by flow cytometry.

[6] = test system: CD45+CD3+NK1.1+ NKT cells; experiment: IFN-γ expression in NKT cells; type: cell-based, C57BL/6 mice; details: bone marrow cells; actein 62.5 ng/mL, deoxyactein 250 ng/mL; PMA + ionomycin 5 h; flow cytometry; PMA + ionomycin group 7.1 ± 0.7
Text: Test material: same as Experimental Example 9.
Animal: C57BL/6 mice, purchased from Beijing Huafukang Biotechnology Co., Ltd
Bone marrow single cell suspension preparation: same as Experimental Example 9.
Drug treatment and intracellular staining after NKT cell induction activation: same as Experimental Example 9. Flow cytometry was used to detect the percentage of positive cells expressing IFN-γ in CD45^+CD3^+NK1.1^+ NKT cells.

CD3+CD4+ T cells = experiment: IFN-γ expression in CD4+ T lymphocytes; type: cell-based, C57BL/6 mice; details: spleen cells; actein 62.5 ng/mL, deoxyactein 250 ng/mL; PMA + ionomycin 5 h; PMA + ionomycin group 3.8 ± 0.6
Experimental: (§4) Test materials: CD3-PE antibodies were purchased from BD Company in the United States, and CD4-FITC and CD8-PerCP antibodies were purchased from eBioscience Company; the remaining required reagents were the same as those in Experimental Example 9.
as §1
(§5) Preparation of spleen single cell suspension: after anesthesia of C57BL/6 mice, isolated the spleen of the mouse, placed the spleen in a sterile petri dish with 4 mL of PBEB added, grinded the spleen with a glass frosted surface, and filtered with a sterile 400 mesh filter. The spleen cells were placed in a flow tube, and the supernatant was discarded after centrifugation. After adding 2 mL of RBC Lysis Buffer to lyse at room temperature for 15 minutes, the supernatant was discarded by centrifugation to harvest the spleen cells. Then added 1.5 mL of complete medium containing 10% FBS, 1% glutamine, and 1% double antibiotics (anti-penicillin, anti-streptomycin), and mixed well by repeated pipetting.
(§6) Drug treatment and intracellular staining after T cell induction activation: cells were treated with 62.5 ng/mL actein and 250 ng/mL deoxyactein in a medium concentration, and Cell Stimulation Cocktail (containing PMA, ionomycin and protein transport inhibitor) was added to stimulate the cells for 5 h. […]

CD3+CD8+ T cells = experiment: IFN-γ expression in CD8+ T lymphocytes; type: cell-based, C57BL/6 mice; details: spleen cells; actein 62.5 ng/mL, deoxyactein 250 ng/mL; PMA + ionomycin 5 h; PMA + ionomycin group 14.5 ± 1.0
Experimental: as §4, §1, §5, §6

[7] = 2.5 ng/mL, LPS 100 ng/mL, 4 hours
[8] = 12.5 ng/mL, LPS 100 ng/mL, 4 hours
[9] = 62.5 ng/mL, LPS 100 ng/mL, 4 hours
[10] = 312.5 ng/mL, LPS 100 ng/mL, 4 hours
[11] = 25 ng/mL, LPS 100 ng/mL, 4 hours
[12] = 50 ng/mL, LPS 100 ng/mL, 4 hours
[13] = 125 ng/mL, LPS 100 ng/mL, 4 hours
[14] = 250 ng/mL, LPS 100 ng/mL, 4 hours
[15] = 500 ng/mL, LPS 100 ng/mL, 4 hours

| SMILES | survival rate [1] [%] | ALT [2] [U/L] | AST [2] [U/L] | liver pathological damage (HE staining, FIG. 2) [3] | IL-6 [4] [pg/mL] | IL-12 [4] [pg/mL] | MCP-1 [4] [pg/mL] | TNF-α [4] [pg/mL] | IFN-γ [4] [pg/mL] | IFN-γ+ (CD45+CD3-NK1.1+ NK cells) [%] | IFN-γ+ [6] [%] | IFN-γ+ (%), CD4+T cell (CD3+CD4+ T cells) [%] | IFN-γ+ (%), CD8+T cell (CD3+CD8+ T cells) [%] | other results |
| --- | --- | --- | --- | --- | --- | --- | --- | --- | --- | --- | --- | --- | --- | --- |
| CC(=O)O[C@@H]1C[C@@]23C[C@@]24CC[C@H](O[C@@H]2OC[C@@H](O)[C@H](O)[C@H]2O)C(C)(C)[C@@H]4CC[C@H]3[C@]2(C)C[C@@H]3O[C@]4(C[C@@H](C)[C@@H]3[C@@]12C)O[C@H](O)[C@@]1(C)O[C@@H]41 [Actein, actein] | 60 | 39.8 ± 11.1 | 212 ± 33 | large pieces of hepatocyte necrosis was significantly reduced and leukocyte infiltration was reduced | 792 ± 48 | 22 ± 1.9 | 1832 ± 209.7 | 173 ± 18.2 | 116.2 ± 34.8 | 33.0 ± 2.2 | 3.5 ± 0.6 | 3.1 ± 0.6 | 14.3 ± 0.7 | IL-12 ([5]; 0.5 ng/mL, LPS 100 ng/mL 1 h later, supernatant after 4 hours, LPS group 226.6 ± 26.6): 194.5 ± 22.3 pg/mL; TNF-α ([5]; 0.5 ng/mL, LPS 100 ng/mL 1 h later, supernatant after 4 hours, LPS group 2891 ± 57): 2555 ± 62.3 pg/mL; IL-12 [5, 7]: 136.3 ± 22.8 pg/mL; TNF-α [5, 7]: 2483 ± 77.3 pg/mL; IL-12 [5, 8]: 88.5 ± 10.6 pg/mL; TNF-α [5, 8]: 2327 ± 77.3 pg/mL; IL-12 [5, 9]: 48.2 ± 21.4 pg/mL; TNF-α [5, 9]: 2056 ± 49.2 pg/mL; IL-12 [5, 10]: 8 ± 0.8 pg/mL; TNF-α [5, 10]: 2062 ± 49 pg/mL |
| CC(=O)O[C@@H]1C[C@@]23C[C@@]24CC[C@H](O[C@@H]2OC[C@@H](O)[C@H](O)[C@H]2O)C(C)(C)[C@@H]4CC[C@H]3[C@]2(C)C[C@@H]3O[C@]4(C[C@@H](C)[C@@H]3[C@@]12C)OC[C@@]1(C)O[C@@H]41 [Deoxyactein, deoxyactein] | 40 | 144.4 ± 68.5 | 390.8 ± 98.2 | large pieces of hepatocyte necrosis was significantly reduced and leukocyte infiltration was reduced | 1406 ± 134.1 | 190.5 ± 22.5 | 4741 ± 665.7 | 394.4 ± 41.8 | 245.3 ± 56 | 29.5 ± 3.5 | 2.2 ± 0.4 | 2.0 ± 0.7 | 12.1 ± 1.3 | IL-12 [5, 11]: 244 ± 2.8 pg/mL; TNF-α [5, 11]: 2529 ± 121.3 pg/mL; IL-12 [5, 12]: 177.8 ± 12.5 pg/mL; TNF-α [5, 12]: 2321 ± 97.4 pg/mL; IL-12 [5, 13]: 142.3 ± 6.8 pg/mL; TNF-α [5, 13]: 2440 ± 84.8 pg/mL; IL-12 [5, 14]: 88.1 ± 22.3 pg/mL; TNF-α [5, 14]: 2305 ± 76.8 pg/mL; IL-12 [5, 15]: 42.2 ± 23.7 pg/mL; TNF-α [5, 15]: 2077 ± 43.8 pg/mL |

— US11052099B2, “Use of cimicifugae rhizoma triterpenoid saponin extract, actein, and deoxyactein” (BEIJING DITAN HOSPITAL, CAPITAL MEDICAL UNIVERSITY, priority 2017, dated 2021)
